Laboratory results: US20170367338A1, “COMPOSITIONS AND METHODS FOR IMPROVING AGRONOMIC CHARACTERISTICS OF PLANTS” (MONSANTO TECHNOLOGY LLC, priority 2014, published 2017)
Converted amounts (≈) assume the structure as drawn. Like-named read-outs stand apart in the source and are kept apart here. Marks after values point to notes of the source that are not given here.

Columns and labels:
[1] = system: soybean cyst nematode (SCN); assay: SCN greenhouse sand assay on soybean plants; format: in vivo; conditions: Glycine max, 672 h, read-out: percent control (cyst number reduction) relative to the control blank treatment; for pest or weed control at 2000 g/ha: 2 kg/ha
Source text: Soybeans seeds are planted in 100% sand in two inch square plastic pots. Chemical treatment is done when the soybeans show the first trifoliate beginning to emerge about 10 to 12 days after planting. At least four hours after chemical application the nematode soybean cyst nematode (SCN) eggs are applied and 28 days after the egg inoculation the test is harvested.
One milligram of chemistry per four pots is equal to one kilogram per hectare of chemical. A standard test uses four replications. For rates above 2 kg/ha, the desired amount of chemical is weighed into a 30 ml vial (example: 8 kg/ha rate =8 mg chemical in 30 ml vial). The chemical is dissolved in 2 ml of appropriate solvent, generally acetone. For rates below 2 kg/ha, 2 milligrams of chemistry is weighed into the vial and dissolved in 2 ml of the solvent. The appropriate amount of chemical concentrate is then pipetted into a separate 30 ml vial and solvent is added to bring the volume to 2 ml (example 0.5 kg/ha=0.5 ml of concentrate+1.5 ml solvent). Each dissolved concentrate is then brought to a total of 20 milliliters using 0.05% Triton X 100 surfactant solution.
Pots to be treated are moist but not saturated. To each of four pots, five milliliters of the appropriate chemical solution is pipetted to the media surface making sure to avoid contact with the base of the plant. Immediately following chemical application, using a mist nozzle, the pot surface is wetted sufficiently to saturate the pot watering in the chemistry. The chemical application is done in the morning.
Nematode eggs, either SCN or RKN, are added to distilled water to create a concentration of 1000 vermiform eggs […]. At least four hours after chemical treatment the eggs are applied to the treated pots plus non-treated check plants. A small hole about 1 cm deep is punched into the pot surface. One milliliter of the nematode egg slurry is pipetted into the hole. Immediately afterwards the hole is gently covered. Watering of the test plants is then restricted to only water as needed to prevent wilt for a period of 24 hours. After the 24 hour restricted watering, normal sub-irrigation watering is done for the duration of the test.

[2] = format: in vivo; conditions: 500 mg/kg oral, three female mice, observed up to 14 days
Procedure: Acute oral toxicity testing was performed in mice in accordance with test method P203.UDP, as administered by Eurofins/Product Safety Laboratories (Dayton, New Jersey). CD-1/Swiss derived albino mice were obtained and group housed in suspended solid bottom caging. The mice were fed rodent chow and filtered tap water was supplied ad libitum. Following acclimation to the laboratory setting, a group of animals was fasted overnight by removing food from the cages. After the fasting period, three female mice were selected based on vitality and initial body weights. The individual compound doses were calculated from these body weights.
The test substance was prepared as a 1% (50 mg/kg) or 5% (500 mg/kg) weight to weight (w/w) mixture in a 0.5% w/w solution of carboxymethylcellulose (CMC) in distilled water. A tissue homogenizer was used to create a homogeneous mixture. A dose of 50 or 500 mg/kg was administered to three healthy mice per dose level by oral intubation using a ball-tipped gavage needle attached to a syringe. After administration, the animals were returned to their cages, and feed was replaced immediately after dosing.
Body weights were recorded prior to initiation and on Days 7 and 14 or a soon as possible after death.

Meloidogyne incognita [3] = assay: M. incognita miniaturized greenhouse assay on cucumber seedlings; format: in vivo
Procedure: The test compound is dissolved in an acetone solution and added to water. A sprouted cucumber seedling is placed into a vial with dry sand and the water-chemical solution is added immediately. Twenty four hours later Meloidogyne incognita eggs are added to the vials and 10 to 12 days later the roots are evaluated for nematode galling.
Cucumber seeds are sprouted for 3 days in moist paper towels. Acceptable sprouts should be 3 to 4 cm long with several lateral roots just emerging. Stock solutions of chemistry are prepared in a mixture of acetone and Triton X100 (412 mg in 500 mL) to a final concentration of 5 mg/mL. The chemical stock solution is then added to 10 mL deionized water plus 0.015% Triton X100 and mixed thoroughly. This is enough to test each condition in triplicate. Ten mL dry sand is added to each vial. At this time the solubility of the chemistry is visually determined and recorded as either ppt (large precipitates) or cloudy (fine precipitates). Seedlings are planted by tilting the vial and laying the seedling in the correct orientation so that the cotyledons are just above the sand and then tilting back to cover the radicles with sand. 3.3 ml water/chemical mix is added to each vial and the vials placed in racks under fluorescent light banks. The vials are inoculated two days after planting by adding 500 vermiform M. incognita eggs to each vial in 50 uL of deionized or spring water. The vials are then kept under the fluorescent lamps at ambient room temperature and watered as needed with 1mL deionized water, usually twice during duration of test. Harvest of the cucumber plants is done 10 to 12 days after inoculation by washing sand off the roots. A root gall rating and visual phytotoxicity rating is assigned using the following scales: Gall rating scale (Gall: % root mass galled): 0=0-5%; 1=6-20%; 2=21-50%; and 3=51-100%. The average of the triplicate gall rating is then calculated: green=0.00-0.33 (no galls); yellow=0.67-1.33 (mild galling); orange=1.67-2.33 (moderate galling); red=2.67-3.00 (severe galling). Visual phytotoxicity scale is also assigned (Vis. tox; visual reduction in root mass compared to the control): rs1=mild stunting; rs2=moderate stunting; rs3=severe stunting.

Meloidogyne incognita [4] = assay: Fall nematicidal field test on squash; conditions: for RW28 root weight at 28 days after treatment / RW43 root weight at 43 days after treatment / TW28 top weight at 28 days after treatment / RG28 % root galls at 28 days after treatment / RG43 % root galls at 43 days after treatment: squash
Source text: The soil was a native prairie/pasture covering silty clay loam soil. […] Total volume of each hole was about 1.2 cubic feet. […] Holes were filled and then re-filled 5 days later after settling. […] Organic matter was 0.2% and pH was 6.8.
Treatments were arranged in a block design with the blocks laid out perpendicular to the primary slope and parallel to secondary slope. There are 7 inoculated controls and 5 non-inoculated controls and the distributions of disease severity appeared independent of location.
The resultant mix is the same as used in the standard greenhouse assays (10% acetone, 0.05% X100). The oxamyl treatments were prepared from Vydate 2L formulated the same way. The 500 ml was placed in a watering can and the entire volume was evenly sprinkled over the surface of the plot. No runoff occurred and pooling, if any, was short lived. The final drench volume was 0.58 ml/cm^2, compared to 0.2 ml/cm^2 used in our greenhouse, however the microplots are much deeper so the drench volume applied per soil volume treated is roughly the same.
Meloidogyne incognita eggs were harvested over a two week period and stored at approximately 5° C. until needed. A stock of 5.6 million vermiform eggs was adjusted to 9000/m1 in 620 ml. One day after treatment, two holes were made in each plot about 7 cm apart and equidistant from the squash plants. Five ml of egg suspension was pipetted into each hole, which was then sealed and the plot lightly watered. A total of 90,000 vermiform eggs were added to each plot.
The first root evaluation was at 28 DAT. The tops were cut off and weighed immediately in the field, and the roots were carefully dug out so as not to disturb the remaining plant.

C. elegans = assay: Three day C. elegans well assay; format: in vivo; conditions: Caenorhabditis elegans, L1 larvae
Procedure: Various compounds were tested for nematicidal activity against C. elegans using contact assays in wells. The assays were performed as described below. The test compounds were solubilized in DMSO at 10 mg/ml to create 100× stock solutions. A dilution series was created by diluting the stock solution with DMSO. For each well assay 4 ul of the appropriate dilution is added to a well of a test plate. A 400 ul aliquot of bacterial stock (in M9 buffer with ampicillin and nystatin) are added to each well of the test plate. Worms are added and the test plate placed on a rotary shaker and held at 20° C. Worms are examined and scored at 4 hrs, 24 hrs, 48 hrs and 72 hours. L1 worms and L4 worms were used in the assay. L1 worms are prepared by plating eggs on a plate without a bacterial feeding layer. The eggs hatch and arrest at the L1 stage. This L1 stage population is then used to create a stock for the experiments. To create an L4 stage stock a small number of worms are taken from an overgrown and starved plate of worms and seeded on a plate with a bacterial feeder layer. A 25 ul aliquot of worms is added to each well in the assay.

Meloidogyne incognita [5] = assay: Summer field evaluation of pre-plant incorporated compounds on squash; format: in vivo
Procedure: Test plots of 33 cm diameter holes were bored 41 cm deep into clay soil and filled with a mixture of 80% sand and 20% silt loam soil. Technical compound for each treatment was dissolved in 50 ml acetone containing 250 ul of Triton X-100 surfactant. This solution was added to 450 ml water and poured onto 95 liters of sand/soil mixture in a rotating drum mixer. While continuing to rotate the mixing drum 66 grams of chopped, galled, tomato roots was added and thoroughly distributed. The treated soil was sufficient to fill the top 15 cm of each of the 6 replicate plots, thus simulating a PPI treatment. The plots were then watered lightly and a mixture of M. incognita eggs and larvae were injected 5 cm deep at 5 points within the plot (100k eggs/larvae in 10m1 per plot). Three-week old squash (cv. Liberator III) with 1 fully expanded true leaf was planted 4 days after soil treatment, one per plot.

[6] = system: Heterodera glycines (SCN); assay: Seed treatment test of soybean cyst nematode on soybean; format: in vivo; conditions: Heterodera glycines, 672 h, read-out: percent cyst reduction relative to control blank treatment
Procedure: For a given concentration the chemical is dissolved in 500 ul of acetone and one gram of cucumber seed (RKN test) or soybean seed (SCN test) is added (e.g., 20 mg active ingredient in 500 ul acetone plus 1 gram of seed). The seed solutions are agitated until all seeds were thoroughly covered with the chemical solution. The acetone is then allowed to evaporate by air drying the seeds. The seeds are planted in 2-inch pots containing sandy soil and then the pots are inoculated with 1000 Meloidogyne incognita (RKN) or 1000 Heterodera glycines (SCN) eggs per pot three days after planting. Plants are rated for galling 14 days after egg inoculation for RKN or 28 days after egg inoculation for SCN.

Compound: FC(F)(F)c1cccc(-c2noc(-c3ccco3)n2)c1 [compound 5181]
- pest or weed control at 2000 g/ha ([1]; test a): 100%

Compound: c1cncc(-c2noc(-c3ccco3)n2)c1 [compound 5292]
- pest or weed control at 2000 g/ha ([1]; test a): 92%

Compound: Fc1ccc(-c2cnc(-c3cccs3)o2)cc1 [compound 4775]
- pest or weed control at 2000 g/ha ([1]; test b): 95%
- acute oral toxicity: mortality and signs [2]: all animals survived

Compound: c1ccc(-c2cc(-c3ccco3)n[nH]2)cc1 [3-(furan-2-yl)-5-phenyl-1H-pyrazole]
- nematicidal activity (Meloidogyne incognita [3]; text reference to table 1D, 8 ppm and 1 ppm): at 8 ppm but not 1 ppm

Compound: Clc1ccc(-c2nnc(-c3cccs3)o2)cc1 [compound 4559]
- pest or weed control at 2000 g/ha ([1]; test a): 98%
- RW28 root weight at 28 days after treatment (Meloidogyne incognita [4]; 2 kg ai/ha): 6.4
- RW43 root weight at 43 days after treatment (Meloidogyne incognita [4]; 2 kg ai/ha): 13.2
- TW28 top weight at 28 days after treatment (Meloidogyne incognita [4]; 2 kg ai/ha): 150.8
- control of root galling compared with oxamyl at an equivalent rate (Meloidogyne incognita [4]; 43 day time point): significantly better than oxamyl

Compound: Cc1cc(Br)ccc1-c1nsc(-c2ccco2)n1 [compound 5939]
- pest or weed control at 100 g/ha ([1]; 0.1 kg/ha, test d): 64%
- pest or weed control at 250 g/ha ([1]; 0.25 kg/ha, test d): 88%
- EC50 (C. elegans; 24 h, one day of exposure, read-out: EC50 L1 1D): 0.4 µg/mL (≈ 1.25 µM)
- EC50 (C. elegans; 48 h, two days of exposure, read-out: EC50 L1 2D): 0.4 µg/mL (≈ 1.25 µM)
- EC50 (C. elegans; 72 h, three days of exposure, read-out: EC50 L1 3D): 0.4 µg/mL (≈ 1.25 µM)

Compound: Clc1ccc(-c2nsc(-c3ccco3)n2)c(Cl)c1 [compound 5960]
- acute oral toxicity: mortality and signs [2]: all animals survived
- control of M. incognita by PPI application (Meloidogyne incognita [5]; 4 kg/ha): significant control

Compound: Cc1occc1-c1nc(-c2ccc(Cl)cc2)no1 [compound 5867]
- 1 ppm gall rating (Meloidogyne incognita [3]; Table 1C test a): 1 ^a (1=6-20%)

Compound: COc1ccc(-c2noc(-c3ccoc3C)n2)cc1 [compound 5869]
- 1 ppm gall rating (Meloidogyne incognita [3]; Table 1C test a): 1 ^a (1=6-20%)

Compound: CNC(=O)O/N=C(\SC)C(=O)N(C)C [Oxamyl]
- gall ratings (Meloidogyne incognita [3]; 1 ppm (oxamyl), Table 1A): 0.67
- 1 ppm gall ratings (Meloidogyne incognita [3]; Table 1B test a): 0.67
- 1 ppm gall ratings (Meloidogyne incognita [3]; Table 1B test b): 1 (1=6-20%)
- 1 ppm gall ratings (Meloidogyne incognita [3]; Table 1B test c): 1.33
- 1 ppm gall ratings (Meloidogyne incognita [3]; Table 1B test d): 1.33
- 1 ppm gall ratings (Meloidogyne incognita [3]; Table 1B test e): 1 (1=6-20%)
- 1 ppm gall rating (Meloidogyne incognita [3]; Table 1C test a): 1.33
- 1 ppm gall rating (Meloidogyne incognita [3]; Table 1C test b): 1 (1=6-20%)
- 1 ppm gall rating (Meloidogyne incognita [3]; Table 1C test c): 0.67^c
- 1 ppm gall rating (Meloidogyne incognita [3]; Table 1D test a): 1.33
- 1 ppm gall rating (Meloidogyne incognita [3]; Table 1D test b): 1 (1=6-20%)
- 0-3 vigor 16DAP (Meloidogyne incognita [5]; 4 kg/ha PPI, squash): 2.7
- 0-3 vigor 21DAP (Meloidogyne incognita [5]; 4 kg/ha PPI, squash): 2.5
- feeder root (3 = ave) 31DAP (Meloidogyne incognita [5]; 4 kg/ha PPI, squash): 3.0
- gall % 31DAP (Meloidogyne incognita [5]; 4 kg/ha PPI, squash): 85%
- root wgt (g) 31DAP (Meloidogyne incognita [5]; 4 kg/ha PPI, squash): 37.0 g
- top wgt (lbs) 31DAP (Meloidogyne incognita [5]; 4 kg/ha PPI, squash): 1.16 lbs
- total fruit (lbs) (Meloidogyne incognita [5]; 4 kg/ha PPI, squash): 1.09 lbs
- pest or weed control at 0.375 mg/g [6]: -4%
- pest or weed control at 1.5 mg/g [6]: 71%
- RG28 % root galls at 28 days after treatment (Meloidogyne incognita [4]; 2 kg ai/ha): 45.0%
- RG43 % root galls at 43 days after treatment (Meloidogyne incognita [4]; 2 kg ai/ha): 42.3%
- RW28 root weight at 28 days after treatment (Meloidogyne incognita [4]; 2 kg ai/ha): 5.6
- RW43 root weight at 43 days after treatment (Meloidogyne incognita [4]; 2 kg ai/ha): 14.3
- TW28 top weight at 28 days after treatment (Meloidogyne incognita [4]; 2 kg ai/ha): 136.8
- RG28 % root galls at 28 days after treatment (Meloidogyne incognita [4]; 5 kg ai/ha): 10.5%
- RG43 % root galls at 43 days after treatment (Meloidogyne incognita [4]; 5 kg ai/ha): 17.3%
- RW28 root weight at 28 days after treatment (Meloidogyne incognita [4]; 5 kg ai/ha): 6.6
- RW43 root weight at 43 days after treatment (Meloidogyne incognita [4]; 5 kg ai/ha): 12.7
- TW28 top weight at 28 days after treatment (Meloidogyne incognita [4]; 5 kg ai/ha): 232.1

Compound: c1ccc(-c2cnc(-c3cccs3)o2)cc1 [compound 4417]
- pest or weed control at 2000 g/ha ([1]; test b): 94%
- acute oral toxicity: mortality and signs [2]: One animal died within four days
- RW28 root weight at 28 days after treatment (Meloidogyne incognita [4]; 2 kg ai/ha): 5.3
- RW43 root weight at 43 days after treatment (Meloidogyne incognita [4]; 2 kg ai/ha): 16.4
- TW28 top weight at 28 days after treatment (Meloidogyne incognita [4]; 2 kg ai/ha): 97.5
- Leaf diameter of the first true leaves (Meloidogyne incognita [4]; 2 kg/ha, five days after treatment (5 DAT)): slight reduction
- phytotoxicity (Meloidogyne incognita [4]; 2 kg/ha, two days after treatment, squash seedlings): slight phytotoxicity
